Measurements from patent US20260262643A1, “HERBICIDAL BENZOXAZINES” (FMC CORPORATION, priority 2022, published 2026).

Columns and labels:
galium = test: Test A postemergence; format: in vivo, Galium aparine; settings: postemergence, 10 days; for Galium plant response rating: 125 g ai/ha, 0 to 100 scale, 0 no effect, 100 complete control; for Plant response rating, Galium: 500 g ai/ha, visual injury, 0 to 100 scale (0 no effect, 100 complete control)
Summary of the method: (§1)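 Visual injury ratings on a 0–100 scale (100 = complete control) versus untreated controls, taken 10 days after treatment in greenhouse. Preemergence: directed soil spray onto seeded loam/sand. Postemergence: foliar application at one- to two-leaf stage, plants 2–10 cm. Formulation: non-phytotoxic solvent plus surfactant.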

goosegrass [1] = test: Test A preemergence; format: in vivo, Eleusine indica
Summary of the method: as §1

foxtail, giant [2] = test: Test A postemergence; format: in vivo, Setaria faberi; settings: postemergence, 10 days; for Foxtail, Giant plant response rating: 125 g ai/ha, 0 to 100 scale, 0 no effect, 100 complete control; for Plant response rating, Foxtail, Giant: 500 g ai/ha, visual injury, 0 to 100 scale (0 no effect, 100 complete control)
Summary of the method: as §1

barnyardgrass = test: Test B flooded paddy test; format: in vivo, Echinochloa crus-galli; settings: 250 g ai/ha, Flood, 13 days, 0 to 100 scale (0 no effect, 100 complete control)
Summary of the method: (§2)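 Each species was raised to the 2-leaf stage. At treatment, each pot received floodwater 3 cm deep, with the chemical delivered into the water. Greenhouse holding followed for 13 days, then percent control was estimated visually versus untreated pots.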

ryegrass, Italian [3] = test: Test A preemergence; format: in vivo, Lolium multiflorum
Summary of the method: as §1

oat, wild [4] = test: Test A postemergence; format: in vivo, Avena fatua; settings: postemergence, 10 days; for Oat, Wild plant response rating: 125 g ai/ha, 0 to 100 scale, 0 no effect, 100 complete control; for Plant response rating, Oat, Wild: 500 g ai/ha, visual injury, 0 to 100 scale (0 no effect, 100 complete control)
Summary of the method: as §1

wheat [5] = test: Test A preemergence; format: in vivo, Triticum aestivum
Summary of the method: as §1

pigweed, palmer [6] = test: Test A postemergence; format: in vivo, Amaranthus palmeri; settings: postemergence, 10 days; for Pigweed, Palmer plant response rating: 125 g ai/ha, 0 to 100 scale, 0 no effect, 100 complete control; for Plant response rating, Pigweed, Palmer: 500 g ai/ha, visual injury, 0 to 100 scale (0 no effect, 100 complete control)
Summary of the method: as §1

ducksalad = test: Test B flooded paddy test; format: in vivo, Heteranthera limosa; settings: 250 g ai/ha, Flood, 13 days, 0 to 100 scale (0 no effect, 100 complete control)
Summary of the method: as §2

ryegrass, Italian [7] = test: Test A postemergence; format: in vivo, Lolium multiflorum; settings: postemergence, 10 days; for Ryegrass, Italian plant response rating: 125 g ai/ha, 0 to 100 scale, 0 no effect, 100 complete control; for Plant response rating, Ryegrass, Italian: 500 g ai/ha, visual injury, 0 to 100 scale (0 no effect, 100 complete control)
Summary of the method: as §1

wheat [8] = test: Test A postemergence; format: in vivo, Triticum aestivum; settings: postemergence, 10 days; for Wheat plant response rating: 125 g ai/ha, 0 to 100 scale, 0 no effect, 100 complete control; for Plant response rating, Wheat: 500 g ai/ha, visual injury, 0 to 100 scale (0 no effect, 100 complete control)
Summary of the method: as §1

corn [9] = test: Test A postemergence; format: in vivo, Zea mays; settings: postemergence, 10 days; for Corn plant response rating: 125 g ai/ha, 0 to 100 scale, 0 no effect, 100 complete control; for Plant response rating, Corn: 500 g ai/ha, visual injury, 0 to 100 scale (0 no effect, 100 complete control)
Summary of the method: as §1

soybean [10] = test: Test A postemergence; format: in vivo, Glycine max; settings: postemergence, 10 days; for Soybean plant response rating: 125 g ai/ha, 0 to 100 scale, 0 no effect, 100 complete control; for Plant response rating, Soybean: 500 g ai/ha, visual injury, 0 to 100 scale (0 no effect, 100 complete control)
Summary of the method: as §1

goosegrass [11] = test: Test A postemergence; format: in vivo, Eleusine indica; settings: postemergence, 10 days; for Goosegrass plant response rating: 125 g ai/ha, 0 to 100 scale, 0 no effect, 100 complete control; for Plant response rating, Goosegrass: 500 g ai/ha, visual injury, 0 to 100 scale (0 no effect, 100 complete control)
Summary of the method: as §1

oat, wild [12] = test: Test A preemergence; format: in vivo, Avena fatua
Summary of the method: as §1

horseweed = test: Test A postemergence; format: in vivo, Erigeron canadensis; settings: postemergence, 10 days; for Horseweed plant response rating: 125 g ai/ha, 0 to 100 scale, 0 no effect, 100 complete control; for Plant response rating, Horseweed: 500 g ai/ha, visual injury, 0 to 100 scale (0 no effect, 100 complete control)
Summary of the method: as §1

pigweed, palmer [13] = test: Test A preemergence; format: in vivo, Amaranthus palmeri
Summary of the method: as §1

rice = test: Test B flooded paddy test; format: in vivo, Oryza sativa; settings: 250 g ai/ha, Flood, 13 days, 0 to 100 scale (0 no effect, 100 complete control)
Summary of the method: as §2

blackgrass [14] = test: Test A preemergence; format: in vivo, Alopecurus myosuroides
Summary of the method: as §1

sedge, umbrella = test: Test B flooded paddy test; format: in vivo, Cyperus difformis; settings: 250 g ai/ha, Flood, 13 days, 0 to 100 scale (0 no effect, 100 complete control)
Summary of the method: as §2

soybean [15] = test: Test A preemergence; format: in vivo, Glycine max
Summary of the method: as §1

ragweed [16] = test: Test A postemergence; format: in vivo, Ambrosia artemisiifolia; settings: postemergence, 10 days; for Ragweed plant response rating: 125 g ai/ha, 0 to 100 scale, 0 no effect, 100 complete control; for Plant response rating, Ragweed: 500 g ai/ha, visual injury, 0 to 100 scale (0 no effect, 100 complete control)
Summary of the method: as §1

corn [17] = test: Test A preemergence; format: in vivo, Zea mays
Summary of the method: as §1

kochia [18] = test: Test A preemergence; format: in vivo, Bassia scoparia
Summary of the method: as §1

blackgrass [19] = test: Test A postemergence; format: in vivo, Alopecurus myosuroides; settings: postemergence, 10 days; for Blackgrass plant response rating: 125 g ai/ha, 0 to 100 scale, 0 no effect, 100 complete control; for Plant response rating, Blackgrass: 500 g ai/ha, visual injury, 0 to 100 scale (0 no effect, 100 complete control)
Summary of the method: as §1

foxtail, giant [20] = test: Test A preemergence; format: in vivo, Setaria faberi
Summary of the method: as §1

ragweed [21] = test: Test A preemergence; format: in vivo, Ambrosia artemisiifolia
Summary of the method: as §1

kochia [22] = test: Test A postemergence; format: in vivo, Bassia scoparia; settings: postemergence, 10 days; for Kochia plant response rating: 125 g ai/ha, 0 to 100 scale, 0 no effect, 100 complete control; for Plant response rating, Kochia: 500 g ai/ha, visual injury, 0 to 100 scale (0 no effect, 100 complete control)
Summary of the method: as §1

[23] = 125 g ai/ha, visual injury after 10 days, 0 to 100 scale, 0 is no effect, 100 is complete control
[24] = 500 g ai/ha, 0 to 100 scale (0 no effect, 100 complete control), 10 days

Cc1ccc(-n2cnc(C3CCC3)n2)cc1C(=O)N1C[C@H](C)Oc2c(C)cccc21 [Compound 97]
Galium plant response rating (galium): 80 | Plant response rating, Galium (galium): 100 | Plant response rating, Goosegrass (goosegrass [1]; [23]): 100 | Plant response rating, Goosegrass (goosegrass [1]; [24]): 100 | Foxtail, Giant plant response rating (foxtail, giant [2]): 90 | Plant response rating, Foxtail, Giant (foxtail, giant [2]): 90 | Plant response rating, Barnyardgrass (barnyardgrass): 0 | Plant response rating, Ryegrass, Italian (ryegrass, Italian [3]; [23]): 70 | Plant response rating, Ryegrass, Italian (ryegrass, Italian [3]; [24]): 100 | Oat, Wild plant response rating (oat, wild [4]): 30 | Plant response rating, Oat, Wild (oat, wild [4]): 70 | Plant response rating, Wheat (wheat [5]; [23]): 10 | Plant response rating, Wheat (wheat [5]; [24]): 40 | Pigweed, Palmer plant response rating (pigweed, palmer [6]): 90 | Plant response rating, Pigweed, Palmer (pigweed, palmer [6]): 100 | Plant response rating, Ducksalad (ducksalad): 0 | Ryegrass, Italian plant response rating (ryegrass, Italian [7]): 40 | Plant response rating, Ryegrass, Italian (ryegrass, Italian [7]): 80 | Wheat plant response rating (wheat [8]): 20 | Plant response rating, Wheat (wheat [8]): 70 | Corn plant response rating (corn [9]): 30 | Plant response rating, Corn (corn [9]): 70 | Soybean plant response rating (soybean [10]): 100 | Plant response rating, Soybean (soybean [10]): 100 | Goosegrass plant response rating (goosegrass [11]): 70 | Plant response rating, Goosegrass (goosegrass [11]): 90 | Plant response rating, Oat, Wild (oat, wild [12]; [23]): 90 | Plant response rating, Oat, Wild (oat, wild [12]; [24]): 90 | Horseweed plant response rating (horseweed): 30 | Plant response rating, Horseweed (horseweed): 90 | Plant response rating, Pigweed, Palmer (pigweed, palmer [13]; [23]): 100 | Plant response rating, Pigweed, Palmer (pigweed, palmer [13]; [24]): 100 | Plant response rating, Rice (rice): 0 | Plant response rating, Blackgrass (blackgrass [14]; [23]): 10 | Plant response rating, Blackgrass (blackgrass [14]; [24]): 40 | Plant response rating, Sedge, Umbrella (sedge, umbrella): 0 | Plant response rating, Soybean (soybean [15]; [23]): 40 | Plant response rating, Soybean (soybean [15]; [24]): 100 | Ragweed plant response rating (ragweed [16]): 50 | Plant response rating, Ragweed (ragweed [16]): 80 | Plant response rating, Corn (corn [17]; [23]): 10 | Plant response rating, Corn (corn [17]; [24]): 20 | Plant response rating, Kochia (kochia [18]; [23]): 60 | Plant response rating, Kochia (kochia [18]; [24]): 80 | Blackgrass plant response rating (blackgrass [19]): 30 | Plant response rating, Blackgrass (blackgrass [19]): 80 | Plant response rating, Foxtail, Giant (foxtail, giant [20]; [23]): 100 | Plant response rating, Foxtail, Giant (foxtail, giant [20]; [24]): 100 | Plant response rating, Ragweed (ragweed [21]; [23]): 30 | Plant response rating, Ragweed (ragweed [21]; [24]): 80 | Kochia plant response rating (kochia [22]): 70 | Plant response rating, Kochia (kochia [22]): 100

CCc1ncn(-c2cccc(C(=O)N3C[C@H](C)Oc4c(Cl)cccc43)c2)n1 [Compound 91]
Galium plant response rating (galium): 100 | Plant response rating, Galium (galium): 100 | Plant response rating, Goosegrass (goosegrass [1]; [23]): 100 | Plant response rating, Goosegrass (goosegrass [1]; [24]): 100 | Foxtail, Giant plant response rating (foxtail, giant [2]): 80 | Plant response rating, Foxtail, Giant (foxtail, giant [2]): 90 | Plant response rating, Barnyardgrass (barnyardgrass): 25 | Plant response rating, Ryegrass, Italian (ryegrass, Italian [3]; [23]): 90 | Plant response rating, Ryegrass, Italian (ryegrass, Italian [3]; [24]): 100 | Oat, Wild plant response rating (oat, wild [4]): 50 | Plant response rating, Oat, Wild (oat, wild [4]): 90 | Plant response rating, Wheat (wheat [5]; [23]): 0 | Plant response rating, Wheat (wheat [5]; [24]): 20 | Pigweed, Palmer plant response rating (pigweed, palmer [6]): 70 | Plant response rating, Pigweed, Palmer (pigweed, palmer [6]): 90 | Plant response rating, Ducksalad (ducksalad): 90 | Ryegrass, Italian plant response rating (ryegrass, Italian [7]): 80 | Plant response rating, Ryegrass, Italian (ryegrass, Italian [7]): 100 | Wheat plant response rating (wheat [8]): 30 | Plant response rating, Wheat (wheat [8]): 80 | Corn plant response rating (corn [9]): 60 | Plant response rating, Corn (corn [9]): 80 | Soybean plant response rating (soybean [10]): 100 | Plant response rating, Soybean (soybean [10]): 100 | Goosegrass plant response rating (goosegrass [11]): 80 | Plant response rating, Goosegrass (goosegrass [11]): 90 | Plant response rating, Oat, Wild (oat, wild [12]; [23]): 10 | Plant response rating, Oat, Wild (oat, wild [12]; [24]): 90 | Horseweed plant response rating (horseweed): 0 | Plant response rating, Horseweed (horseweed): 20 | Plant response rating, Pigweed, Palmer (pigweed, palmer [13]; [23]): 90 | Plant response rating, Pigweed, Palmer (pigweed, palmer [13]; [24]): 100 | Plant response rating, Rice (rice): 0 | Plant response rating, Blackgrass (blackgrass [14]; [23]): 80 | Plant response rating, Blackgrass (blackgrass [14]; [24]): 90 | Plant response rating, Sedge, Umbrella (sedge, umbrella): 35 | Plant response rating, Soybean (soybean [15]; [23]): 20 | Plant response rating, Soybean (soybean [15]; [24]): 70 | Ragweed plant response rating (ragweed [16]): 30 | Plant response rating, Ragweed (ragweed [16]): 70 | Plant response rating, Corn (corn [17]; [23]): 30 | Plant response rating, Corn (corn [17]; [24]): 60 | Plant response rating, Kochia (kochia [18]; [23]): 90 | Plant response rating, Kochia (kochia [18]; [24]): 100 | Blackgrass plant response rating (blackgrass [19]): 90 | Plant response rating, Blackgrass (blackgrass [19]): 100 | Plant response rating, Foxtail, Giant (foxtail, giant [20]; [23]): 90 | Plant response rating, Foxtail, Giant (foxtail, giant [20]; [24]): 100 | Plant response rating, Ragweed (ragweed [21]; [23]): 0 | Plant response rating, Ragweed (ragweed [21]; [24]): 30 | Kochia plant response rating (kochia [22]): 80 | Plant response rating, Kochia (kochia [22]): 100
